Assay results: patent US6875761B2 (Eisai Co., Ltd., priority 1997, dated 2005)
Counter-ions that a name gives are not always drawn.

Experiments:
serotonin 2 receptor = target: T1, serotonin 2 receptor (Rattus norvegicus, UniProt P14842); assay: Binding test on [3H] ketanserin, cerebral cortex receptor fraction; design: species or system SD rats; conditions: 0.3 nM [3H] ketanserin, 37° C. 15 min, read-out: 5HT2
T1 construct: To the receptor fraction of the cerebral cortex were added a test compound and 0.3 nM of [^3H] ketanserin; from tissue; host or cells: rat cerebral cortex membrane fraction

serotonin 1A receptor = target: T2, serotonin 1A receptor (Rattus norvegicus, UniProt P19327); assay: Binding test on [3H] 8-hydroxy-dipropylaminotetralin, hippocampus receptor fraction; design: species or system SD rats; conditions: rat hippocampus receptor fraction, 0.5 nM [3H] 8-OH-DPAT, room temperature 30 min; read-out: 5HT1
T2 construct: To the receptor fraction of the hippocampus were added a test compound and 0.5 nM of [^3H]; 8-hydroxy-dipropylaminotetralin; from tissue; host or cells: rat hippocampus membrane fraction
T2 sequence (P19327 1-422): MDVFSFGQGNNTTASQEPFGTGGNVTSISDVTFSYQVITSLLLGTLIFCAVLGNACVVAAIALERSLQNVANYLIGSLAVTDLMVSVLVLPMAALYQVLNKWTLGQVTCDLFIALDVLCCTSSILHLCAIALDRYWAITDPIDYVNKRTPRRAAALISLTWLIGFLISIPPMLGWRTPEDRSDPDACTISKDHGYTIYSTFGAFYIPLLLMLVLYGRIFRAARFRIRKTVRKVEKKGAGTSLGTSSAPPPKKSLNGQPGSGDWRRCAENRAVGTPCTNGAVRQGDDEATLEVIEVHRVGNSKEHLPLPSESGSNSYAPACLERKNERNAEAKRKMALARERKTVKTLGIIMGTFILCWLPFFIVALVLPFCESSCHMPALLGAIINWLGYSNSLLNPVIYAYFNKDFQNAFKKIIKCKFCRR

T1 sequence (P14842 whole entry): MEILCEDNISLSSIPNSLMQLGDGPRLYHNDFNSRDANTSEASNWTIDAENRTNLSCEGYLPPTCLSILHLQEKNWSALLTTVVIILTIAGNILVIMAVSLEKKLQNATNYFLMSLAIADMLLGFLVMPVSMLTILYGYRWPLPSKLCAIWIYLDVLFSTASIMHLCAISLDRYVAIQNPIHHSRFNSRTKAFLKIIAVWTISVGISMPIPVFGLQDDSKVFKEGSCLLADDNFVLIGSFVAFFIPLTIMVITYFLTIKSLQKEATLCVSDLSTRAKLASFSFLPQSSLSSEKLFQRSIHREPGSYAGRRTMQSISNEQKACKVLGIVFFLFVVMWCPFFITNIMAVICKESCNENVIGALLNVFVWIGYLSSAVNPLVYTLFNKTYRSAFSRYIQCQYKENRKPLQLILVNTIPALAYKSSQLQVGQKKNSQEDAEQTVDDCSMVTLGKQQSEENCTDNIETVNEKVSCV

Compound	Ki (serotonin 2 receptor) [nM]	Ki (serotonin 1A receptor) [nM]
CCN1CCN(c2nc(-c3ccc(C(F)CCO)cc3)cc3cccnc23)CC1 (stereo not drawn) [Example 249, 8-(1-ethylpiperazin-4-yl)-6-[4-(3-hydroxy-1-fluoropropyl)phenyl]-1,7-naphthyridine Dihydrochloride]	28.1	38
CCN1CCN(c2nc(-c3ccc(CCCO)cc3)cc3cccnc23)CC1 [Example 247, 8-(1-ethylpiperazin-4-yl)-6-[4-(3-hydroxypropyl)phenyl]-1,7-naphthyridine Dihydrochloride]	28.7	25.1
CCN1CCN(c2nc(-c3ccc(O[C@H](C)CO)cc3)cc3ccoc23)CC1 [Example 302, 7-(1-ethylpiperazin-4-yl)-5-{4-[(R)-2-hydroxy-1-methylethoxy]phenyl}furo[2,3-c]pyridine dihydrochloride]	30	0.53
CCN1CCN(c2nc(-c3ccc(OCCCNC(C)=O)cc3)cc3ccccc23)CC1 [Example 50, 3-[4-(3-Acetamidepropoxy)Phenyl]-1-(4-Ethylpiperazin-1-Yl)Isoquinoline Hydrochloride]	21.9	25.2
CCN1CCN(c2nc(-c3ccc(CCCOC)cc3)cc3ccccc23)CC1 [Example 333, 1-(4-ethylpiperazin-1-yl)-3-[4-(3-(methoxypropyl)phenyl]isoquinolinedihydrochloride]	6.1	17.1
CCN1CCN(c2nc(-c3ccc(CCCF)nc3)cc3ccccc23)CC1 [Example 133, 1-(1-Ethylpiperazin-4-yl)-3-[2-(3-Fluoropropyl)Pyridin-5-yl]Isoquinoline]	6.2	2.9
CCCS(=O)(=O)c1ccc(-c2cc3ccsc3c(N3CCN(CC)CC3)n2)cc1 [Example 451, 7-(4-ethylpiperazin-1-yl)-5-(4-propanesulfonylphenyl)thieno[2,3-c]pyridine dihydrochloride]	37.9	7.72
CCN1CCN(c2nc(/C=C(\C)c3ccccc3)cc3ccccc23)CC1 [Example 196, 1-(1-Ethylpiperazin-4-Yl)-3-(Trans-2-Methyl-2-Phenylethen-1-Yl)Isoquinoline Oxalate]	6.44	66.7
CCCC(O)c1ccc(-c2cc3sccc3c(N3CCN(CC)CC3)n2)cc1 (stereo not drawn) [Example 283, 4-(4-ethylpiperazin-1-yl)-6-[4-1-hydroxybutyl)phenyl]thieno[3,2-c]pyridine oxalate]	6.43	5.71
CCN1CCN(c2nc(-c3ccc(CO)c(CO)c3)cc3ccccc23)CC1 [Example 394, 1-(4-Ethylpiperazin-1-yl)-3-[(3,4-Dihydroxymethyl)Phenyl]Isoquinoline Dihydrochloride]	32.9	10.7
CCN1CCN(c2nc(-c3cncc(CCCOC)c3)cc3ccccc23)CC1 [Example 140, 1-(1-Ethylpiperazin-4-yl)-3-[3-(3-Methoxypropyl)Pyridin-5-yl]Isoquinoline Oxalate]	36.7	22.1

The remaining lines, values ahead:

Ki (serotonin 2 receptor) [nM]	Ki (serotonin 1A receptor) [nM]	Compound
1.14	61.2	CCN1CCN(c2nc(-c3ccc(OC[C@@H](C)O)cc3)cc3ccsc23)CC1 [Example 435, 7-(4-ethylpiperazin-1-yl)-5-[4-(2-hydroxypropoxy)phenyl]thieno[2,3-c]pyridine dihydrochloride]
26.5	67.4	CCN1CCN(c2nc(-c3ccc([C@@H]4C[C@H](O)CCO4)cc3)cc3ccsc23)CC1 (relative stereo) [Example 454, 7-(4-Ethylpiperazin-1-yl)-5-[4-(cis-4-hydroxytetrahydropyran-2-yl)phenyl]thieno[2,3-c]pyridine dihydrochloride]
18.5	25.5	CCN1CCN(c2nc(/C=C/c3cccc(N4CCOCC4)c3)cc3ccccc23)CC1 [Example 204, 3-{(E)-2-[3-(4-Morpholinyl)Phenyl]Ethenyl}-1-(4-Ethylpiperazin-1-Yl)Isoquinoline Oxalate]
3.1	26.7	CCN1CCN(c2nc(-c3ccc(OCCO)c(C)c3)cc3ccccc23)CC1 [Example 40, 3-[3-methyl-4-(2-hydroxyethoxy)phenyl]-1-(4-ethylpiperazin-1-yl)isoquinoline hydrochloride]
1	49.8	CCN1CCN(c2nc(-c3ccc(C#CC(C)(C)O)cc3)cc3sccc23)CC1 [Example 466, 4-(4-ethylpiperazin-1-yl)-6-[4-(3-hydroxy-3-methyl-1-butynyl)phenyl]thieno[3,2-c]pyridine oxalate]
7.33	77.3	CCN1CCN(c2nc(/C=C/c3ccc(N4CCOCC4)nc3)cc3ccccc23)CC1 [Example 200, 3-[(E)-2-[2-(4-Morpholinyl)Pyridin-5-Yl]Ethenyl]-1-(4-Ethylpiperazin-1-Yl)Isoquinoline Hydrochloride]
11.7	2.48	CCN1CCN(c2nc(/C=C/c3cccc(OCCO)c3)cc3ccsc23)CC1 [Example 430, 7-(4-ethylpiperazin-1-yl)-5-[3-(2-hydroxyethoxy)styryl]thieno [2,3-c]pyridine hydrochloride]
24.7	44.5	CCN1CCN(c2nc(Sc3ccccc3)cc3ccccc23)CC1 [Example 374, 1-(4-ethylpiperazin-1-yl)-3-(phenylthio)isoquinoline oxalate]
12.4	155	CCN1CCN(c2nc(-c3ccc(C4=CCOCC4)s3)cc3ccccc23)CC1 [Example 176, 3-[2-(5,6-Dihydro-2H-Pyran-4-Yl)Thiophen-5-Yl]-1-[4-Ethylpiperazin-1-Yl)Isoquinoline Hydrochloride]
23.2	12.6	CCN1CCN(c2nc(-c3ccc(CCCO)c(Cl)c3)cc3ccsc23)CC1 [Example 257, 5-[4-(3-hydroxypropyl)-3-chlorophenyl]-7-(4-ethylpiperazin-1-yl)thieno[2,3-c]pyridine Oxalate]
9.1	24.4	CCN1CCN(c2nc(-c3ccc(CO)c(F)c3)cc3ccccc23)CC1 [Example 28, 1-(4-ethylpiperazin-1-yl)-3-[4-(4-hydroxymethyl-3-fluoro)phenyl]isoquinoline hydrochloride]
7.85	6.33	CCN1CCN(c2nc(-c3ccc(N4CCOCC4)cn3)cc3ccccc23)CC1 [Example 148, 1-(4-ethylpiperazin-1-yl)-3-[5-(morpholin-4-yl)pyridin-2-yl]isoquinoline trihydrochloride]
6.46	10.8	CCC(O)c1ccc(-c2cc3sccc3c(N3CCN(CC)CC3)n2)cc1 (stereo not drawn) [Example 282, 4-(4-ethylpiperazin-1-yl)-6-[4-(1-hydroxypropyl)phenyl]thieno-[3,2-c]pyridine oxalate]
1.93	61.6	CCN1CCN(c2nc(COc3ccc(OC)cc3)cc3ccccc23)CC1 [Example 424, 1-(4-ethylpiperazin-1-yl)-3-(4-methoxyphenoxymethyl)isoquinoline Hydrochloride]
9.08	45.5	CCN1CCN(c2nc(/C=C/c3ccc(OCCO)cc3)cc3ccccc23)CC1 [Example 198, 1-(1-Ethylpiperazin-4-Yl)-3-[(E)-4-(2-Hydroxyethoxy)Styryl]Isoquinoline Oxalate]
25.4	32.6	CCC(O)c1ccc(-c2cc3ccccc3c(N3CCN(CC)CC3)n2)s1 (stereo not drawn) [Example 165, 1-(1-Ethylpiperazin-4-yl)-3-[2-(1-hydroxypropyl)thiophen-5-yl)isoquinoline hydrochloride]
